# Assay results from ChEMBL document CHEMBL3779803, “α-Glucosidase Inhibitory Prenylated Anthranols from Harungana madagascariensis” (J Nat Prod, 2016).
# pIC50: −log10 of the molar value.
# Tested on: Saccharomyces cerevisiae
# Assay: Inhibition of Saccharomyces cerevisiae alpha-glucosidase at 5 uM using p-nitrophenyl-alpha-D-glucoside as substrate measured for 40 mins by spectrophotometric analysis
row,Structure (SMILES),inhibition
1,CC(C)=CCc1c(C)cc2cc3c(c(O)c2c1O)C(=O)C=C(O)C3(CC=C(C)C)CC=C(C)C,47%

# Target: not listed separately
# Assay: Inhibition of Saccharomyces cerevisiae alpha-glucosidase using p-nitrophenyl-alpha-D-glucoside as substrate measured for 40 mins by spectrophotometric analysis
row,Structure (SMILES),pIC50
1,Cc1cc(O)c2c3c1[C@H](O)[C@@H]1O[C@]3(OC1(C)C)c1c3c(cc(O)c1C2=O)O[C@@H](C(C)(C)O)C3,3.93
2,CC(C)=CCc1c(C)cc(O)c2c1[C@@H](O)c1c3c(cc(O)c1C2=O)O[C@@H](C(C)(C)O)C3,3.68
3,CC(C)=CCc1c(C)cc(O)c2c1C(O)c1c(CC=C(C)C)c(O)cc(O)c1C2=O (stereo not drawn),4.36
4,CC(C)=CCc1c(C)cc(O)c2c1[C@@H](O)c1c3c(cc(O)c1C2=O)OC(C)(C)[C@@H](O)C3,4.43
5,CC(C)=CCc1c(C)cc2cc3c(c(O)c2c1O)C(=O)C(CC1=C(O)C(CC=C(C)C)(CC=C(C)C)c2cc4cc(C)c(CC=C(C)C)c(O)c4c(O)c2C1=O)=C(O)C3(CC=C(C)C)CC=C(C)C,5.92
6,C[C@@H]1O[C@@H](O[C@@H]2[C@@H](O)[C@H](O)[C@H](O[C@H]3[C@H](O)[C@@H](O)C(O)O[C@@H]3CO)O[C@H]2CO)[C@@H](O)[C@H](O)[C@H]1N[C@H]1C=C(CO)[C@@H](O)[C@H](O)[C@H]1O (stereo partly drawn),3.92
7,CC(C)=CCc1c(C)cc(O)c2c(O)c3c(cc12)C(CC=C(C)C)(CC=C(C)C)C(O)=CC3=O [HARUNGANIN],4.42
